The source made the active and inactive calls. No cut-off for these calls is given here.
Tests used:
[1] = target: T1, Cholinesterase (Homo sapiens, UniProt P06276); experiment: Inhibition of BChE (unknown origin)
[2] = target: T2, Acetylcholinesterase (Homo sapiens, UniProt P22303); experiment: Inhibition of AChE (unknown origin)
[3] = test system: HMC3; experiment: Antiinflammatory activity against LPS/ATP-induced human HMC3 cells assessed as reduction in NF-kappaB level at 12.5 uM by immunocytochemistry based analysis; type: functional, cell-based
[4] = test system: HMC3; experiment: Antiinflammatory activity against LPS/ATP-induced human HMC3 cells assessed as increase in Nrf2 level at 12.5 uM by Western blot analysis; type: functional, cell-based
[5] = target: T2, Acetylcholinesterase; experiment: Mixed inhibition of human AChE using ATCI as substrate at 0.1 to 5 uM preincubated for 30 mins followed by substrate addition by Ellman's method; details: dose 0.1-5 µM
[6] = test system: HMC3; experiment: Antiinflammatory activity against LPS/ATP-induced human HMC3 cells assessed as reduction in caspase-1 level at 12.5 uM by Western blot analysis; type: functional, cell-based
[7] = test system: HMC3; experiment: Antiinflammatory activity against LPS/ATP-induced human HMC3 cells assessed as reduction in NLRP3 level at 12.5 uM by immunocytochemistry based analysis; type: functional, cell-based
[8] = test system: HMC3; experiment: Inhibition of mitochondrial impairment in LPS/ATP-induced human HMC3 cells at 12.5 uM incubated for 24 hrs by Rhodamine 123/JC-1 staining based analysis; type: functional, cell-based
[9] = test system: HMC3; experiment: Inhibition of LPS/ATP-induced cytotoxicity against human HMC3 cells at 12.5 uM incubated for 24 hrs by MTT assay; type: functional, cell-based
[10] = test system: HMC3; experiment: Antiinflammatory activity against LPS/ATP-induced human HMC3 cells assessed as decrease in Iba-1 level at 12.5 uM by Western blot analysis; type: functional, cell-based
[11] = target: Cholinesterase (Equus caballus, UniProt P81908); experiment: Inhibition of equine BChE using BTCI as substrate preincubated for 30 mins followed by substrate addition measured after 30 mins by Ellman's method
[12] = test system: HMC3; experiment: Induction of mitochondrial membrane potential stability in LPS/ATP-induced human HMC3 cells at 12.5 uM incubated for 24 hrs by Rhodamine 123/JC-1 staining based analysis; type: functional, cell-based
[13] = test system: HMC3; experiment: Antiinflammatory activity against LPS/ATP-induced human HMC3 cells assessed as reduction in nuclear translocation of NF-kappaB at 12.5 uM by immunocytochemistry based analysis; type: functional, cell-based
[14] = test system: Mus musculus; experiment: Neuroprotective activity against scopolamine-induced cognitive deficit Swiss albino mouse model assessed as increase in CREB1 mRNA level at 10 mg/kg, ip measured after 14 days by RT-PCR analysis; type: functional, organism-based; details: time 14.0 day
[15] = test system: Mus musculus; experiment: Neuroprotective activity against scopolamine-induced cognitive deficit Swiss albino mouse model assessed as increase in PSD95 mRNA level at 10 mg/kg, ip measured after 14 days by RT-PCR analysis; type: functional, organism-based; details: time 14.0 day
[16] = test system: Mus musculus; experiment: Protection against scopolamine-associated dementia in Swiss albino mouse model assessed as increase in latency period at 10 mg/kg, ip measured after 14 days by Passive avoidance task method; type: functional, organism-based; details: time 14.0 day
[17] = target: T2, Acetylcholinesterase; experiment: Inhibition of human AChE using ATCI as substrate preincubated for 30 mins followed by substrate addition measured after 30 mins by Ellman's method
[18] = Acute toxicity in Swiss albino mouse assessed as signs of abnormal behaviour at 2000 mg/kg, po measured 14 days post-administration; type: organism-based; details: in vivo, 336 h, time 14 day
[19] = test system: Mus musculus; experiment: Reversal of scopolamine-induced cognitive deficit Swiss albino mouse model assessed as decrease in escape latency at 10 mg/kg, ip measured for 5 days by Morris water maze test; type: functional, organism-based; details: time 5.0 day
[20] = test system: Mus musculus; experiment: Reversal of scopolamine-induced cognitive deficit Swiss albino mouse model assessed as increase in time in platform quadrant at 10 mg/kg, ip measured after 5 days by Morris water maze test; type: functional, organism-based; details: time 5.0 day
[21] = test system: Mus musculus; experiment: Reversal of scopolamine-induced cognitive deficit Swiss albino mouse model assessed as increase in number of entries in target quadrant at 10 mg/kg, ip measured after 5 days by Morris water maze test; type: functional, organism-based; details: time 5.0 day
[22] = Acute toxicity in Swiss albino mouse assessed as signs of tremor at 2000 mg/kg, po measured 14 days post-administration; type: organism-based; details: in vivo, 336 h, time 14 day
[23] = target: Amyloid-beta precursor protein (Homo sapiens) (UniProt P05067); experiment: Inhibition of self-mediated Amyloid beta (1 to 42)(unknown origin) aggregation at 3.125 uM incubated for 3 days by ThT assay; details: time 3.0 day
[24] = test system: HMC3; experiment: Antiinflammatory activity against LPS/ATP-induced human HMC3 cells assessed as reduction in NLRP3 level at 12.5 uM by Western blot analysis; type: functional, cell-based
[25] = target: Microtubule-associated protein tau (Homo sapiens) (UniProt P10636); experiment: Inhibition of Tau (unknown origin) aggregation at 1.125 uM incubated for 3 days by ThT assay; details: time 3.0 day
[26] = test system: Mus musculus; experiment: Neuroprotective activity against scopolamine-induced cognitive deficit Swiss albino mouse model assessed as increase in GAP43 mRNA level at 10 mg/kg, ip measured after 14 days by RT-PCR analysis; type: functional, organism-based; details: time 14.0 day
[27] = test system: PC-12; experiment: Cytotoxicity against rat PC-12 cells upto 20 uM incubated for 24 hrs by MTT assay; type: toxicity, cell-based; details: pc-12, 24 h
[28] = Antioxidant activity assessed as DPPH radical scavenging activity at 20 to 200 uM incubated for 30 mins by absorbance based analysis relative to control; type: functional; details: dose 20-200 µM
[29] = test system: Mus musculus; experiment: Neuroprotective activity against scopolamine-induced cognitive deficit Swiss albino mouse model assessed as increase in Nr4a2 mRNA level at 10 mg/kg, ip measured after 14 days by RT-PCR analysis; type: functional, organism-based; details: time 14.0 day
[30] = test system: HMC3; experiment: Antiinflammatory activity against LPS/ATP-induced human HMC3 cells assessed as reduction in IL-1beta level at 12.5 uM by Western blot analysis; type: functional, cell-based
[31] = test system: Mus musculus; experiment: Neuroprotective activity against scopolamine-induced cognitive deficit Swiss albino mouse model assessed as increase in PKA mRNA level at 10 mg/kg, ip measured after 14 days by RT-PCR analysis; type: functional, organism-based; details: time 14.0 day
[32] = test system: HMC3; experiment: Inhibition of ROS production in LPS/ATP-induced human HMC3 cells at 12.5 uM incubated for 24 hrs by MitoSOX Red FM staining based analysis; type: functional, cell-based
[33] = Induction of NO release upto 100 uM incubated for 5 to 10 mins by Griess assay; type: functional; details: time 5-10 min
[34] = test system: HMC3; experiment: Antiinflammatory activity against LPS/ATP-induced human HMC3 cells assessed as increase in vimentin level at 12.5 uM by immunocytochemistry based analysis; type: functional, cell-based
[35] = Acute toxicity in Swiss albino mouse assessed as signs of diarrhea at 2000 mg/kg, po measured 14 days post-administration; type: organism-based; details: in vivo, 336 h, time 14 day
[36] = test system: Mus musculus; experiment: Neuroprotective activity against scopolamine-induced cognitive deficit Swiss albino mouse model assessed as increase in BDNF mRNA level at 10 mg/kg, ip measured after 14 days by RT-PCR analysis; type: functional, organism-based; details: time 14.0 day
[37] = Acute toxicity in Swiss albino mouse assessed as signs of convulsion at 2000 mg/kg, po measured 14 days post-administration; type: organism-based; details: in vivo, 336 h, time 14 day
[38] = test system: HMC3; experiment: Antiinflammatory activity against LPS/ATP-induced human HMC3 cells assessed as reduction in IL-18 level at 12.5 uM by Western blot analysis; type: functional, cell-based
[39] = Metal chelating activity assessed as compound-Fe3+ complex formation at 600 uM incubated for 24 hrs by UV spectrophotometry
[40] = Permeability of compound in PBS at pH 7.4 at 500 uM by PAMPA; type: ADME; details: read-out: permeability
[41] = test system: Mus musculus; experiment: Reversal of scopolamine-induced cognitive deficit Swiss albino mouse model assessed as reduction in distance traveled to reach platform at 10 mg/kg, ip measured after 5 days by Morris water maze test; type: functional, organism-based; details: time 5.0 day
[42] = test system: Mus musculus; experiment: Neuroprotective activity against scopolamine-induced cognitive deficit Swiss albino mouse model assessed as increase in c-FOS mRNA level at 10 mg/kg, ip measured after 14 days by RT-PCR analysis; type: functional, organism-based; details: time 14.0 day
[43] = target: Cholinesterase (Equus caballus) (UniProt P81908); experiment: Competitive inhibition of equine BChE using BTCI as substrate at 1 to 10 uM preincubated for 30 mins followed by substrate addition by Ellman's method; details: dose 1-10 µM
[44] = test system: Mus musculus; experiment: Neuroprotective activity against scopolamine-induced cognitive deficit Swiss albino mouse model assessed as increase in TRKB mRNA level at 10 mg/kg, ip measured after 14 days by RT-PCR analysis; type: functional, organism-based; details: time 14.0 day
[45] = Acute toxicity in Swiss albino mouse assessed as animal survival at 2000 mg/kg, po measured 14 days post-administration; type: organism-based; details: in vivo, 336 h, time 14 day
[46] = Acute toxicity in Swiss albino mouse assessed as signs of over-weight gain at 2000 mg/kg, po measured 14 days post-administration; type: organism-based; details: in vivo, 336 h, time 14 day
[47] = Antioxidant activity assessed as inhibition of DPPH radical scavenging activity incubated for 30 mins by absorbance based analysis; type: functional
[48] = target: T1, Cholinesterase; experiment: Inhibition of human BChE using BTCI as substrate preincubated for 30 mins followed by substrate addition measured after 30 mins by Ellman's method
[49] = test system: Mus musculus; experiment: Protection against scopolamine-associated dementia in Swiss albino mouse model assessed as increase in latency period at 1.5 mg/kg, ip measured after 14 days by Passive avoidance task method; type: functional, organism-based; details: time 14.0 day
[50] = test system: Mus musculus; experiment: Neuroprotective activity against scopolamine-induced cognitive deficit Swiss albino mouse model assessed as increase in TRKB mRNA level at 1.5 mg/kg, ip measured after 14 days by RT-PCR analysis; type: functional, organism-based; details: time 14.0 day
[51] = test system: Mus musculus; experiment: Neuroprotective activity against scopolamine-induced cognitive deficit Swiss albino mouse model assessed as increase in BDNF mRNA level at 1.5 mg/kg, ip measured after 14 days by RT-PCR analysis; type: functional, organism-based; details: time 14.0 day
[52] = test system: Mus musculus; experiment: Reversal of scopolamine-induced cognitive deficit Swiss albino mouse model assessed as increase in time in platform quadrant at 1.5 mg/kg, ip measured after 5 days by Morris water maze test; type: functional, organism-based; details: time 5.0 day
[53] = test system: Mus musculus; experiment: Reversal of scopolamine-induced cognitive deficit Swiss albino mouse model assessed as decrease in escape latency at 1.5 mg/kg, ip measured for 5 days by Morris water maze test; type: functional, organism-based; details: time 5.0 day

T2 sequence (P22303 whole entry): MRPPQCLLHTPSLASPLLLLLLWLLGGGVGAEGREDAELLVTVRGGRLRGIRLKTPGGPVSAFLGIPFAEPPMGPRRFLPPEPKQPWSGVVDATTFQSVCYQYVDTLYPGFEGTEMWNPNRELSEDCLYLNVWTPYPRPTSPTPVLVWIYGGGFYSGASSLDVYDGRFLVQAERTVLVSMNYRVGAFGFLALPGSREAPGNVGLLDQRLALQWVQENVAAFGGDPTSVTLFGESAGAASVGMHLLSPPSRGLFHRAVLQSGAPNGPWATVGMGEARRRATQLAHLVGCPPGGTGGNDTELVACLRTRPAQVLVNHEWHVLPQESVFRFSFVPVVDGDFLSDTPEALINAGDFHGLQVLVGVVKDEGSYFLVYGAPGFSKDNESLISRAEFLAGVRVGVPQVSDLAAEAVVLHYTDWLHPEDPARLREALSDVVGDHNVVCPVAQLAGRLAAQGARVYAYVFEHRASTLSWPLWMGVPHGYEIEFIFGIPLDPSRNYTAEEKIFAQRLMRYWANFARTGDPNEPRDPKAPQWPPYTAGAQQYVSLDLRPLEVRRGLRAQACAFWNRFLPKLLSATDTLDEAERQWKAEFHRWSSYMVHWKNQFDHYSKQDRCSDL
T1 sequence (P06276 whole entry): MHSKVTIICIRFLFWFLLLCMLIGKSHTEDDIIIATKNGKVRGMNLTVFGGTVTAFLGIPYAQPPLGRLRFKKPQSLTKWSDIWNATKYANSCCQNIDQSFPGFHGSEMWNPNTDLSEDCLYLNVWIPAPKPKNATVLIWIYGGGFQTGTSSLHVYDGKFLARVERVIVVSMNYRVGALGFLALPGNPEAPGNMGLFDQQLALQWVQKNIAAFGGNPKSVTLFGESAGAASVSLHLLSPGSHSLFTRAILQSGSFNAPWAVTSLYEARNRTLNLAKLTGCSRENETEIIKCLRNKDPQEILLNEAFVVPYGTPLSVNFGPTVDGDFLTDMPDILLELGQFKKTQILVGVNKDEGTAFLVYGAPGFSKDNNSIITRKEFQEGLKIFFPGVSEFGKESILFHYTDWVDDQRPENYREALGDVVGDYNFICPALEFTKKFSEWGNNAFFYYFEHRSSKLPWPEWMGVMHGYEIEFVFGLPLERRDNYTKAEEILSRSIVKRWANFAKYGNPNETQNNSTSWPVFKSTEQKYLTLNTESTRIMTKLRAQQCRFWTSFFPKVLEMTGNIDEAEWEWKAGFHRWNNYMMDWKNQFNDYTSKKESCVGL
Microtubule-associated protein tau (Homo sapiens), sequence (P10636 whole entry): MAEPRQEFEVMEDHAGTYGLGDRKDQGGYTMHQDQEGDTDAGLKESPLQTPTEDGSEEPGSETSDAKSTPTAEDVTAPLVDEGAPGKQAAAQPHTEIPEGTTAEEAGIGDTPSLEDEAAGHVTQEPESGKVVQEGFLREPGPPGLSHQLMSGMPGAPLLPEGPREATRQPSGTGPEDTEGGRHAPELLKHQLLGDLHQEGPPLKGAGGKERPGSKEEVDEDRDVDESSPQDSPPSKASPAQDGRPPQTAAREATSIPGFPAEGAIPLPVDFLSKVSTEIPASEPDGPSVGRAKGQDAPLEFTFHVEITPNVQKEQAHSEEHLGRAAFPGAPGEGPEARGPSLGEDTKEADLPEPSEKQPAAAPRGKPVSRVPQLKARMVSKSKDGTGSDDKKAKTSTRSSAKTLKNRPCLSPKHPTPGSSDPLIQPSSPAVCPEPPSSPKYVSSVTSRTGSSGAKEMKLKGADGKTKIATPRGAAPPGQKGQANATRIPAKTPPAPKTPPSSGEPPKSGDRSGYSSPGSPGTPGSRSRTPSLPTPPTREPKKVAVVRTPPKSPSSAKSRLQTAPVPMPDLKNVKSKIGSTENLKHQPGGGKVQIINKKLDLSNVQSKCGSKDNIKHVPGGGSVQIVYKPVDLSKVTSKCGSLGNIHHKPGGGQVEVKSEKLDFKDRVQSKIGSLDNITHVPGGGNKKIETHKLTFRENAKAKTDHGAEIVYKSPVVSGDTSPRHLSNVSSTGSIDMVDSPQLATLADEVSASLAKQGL
Amyloid-beta precursor protein (Homo sapiens), sequence (P05067 whole entry): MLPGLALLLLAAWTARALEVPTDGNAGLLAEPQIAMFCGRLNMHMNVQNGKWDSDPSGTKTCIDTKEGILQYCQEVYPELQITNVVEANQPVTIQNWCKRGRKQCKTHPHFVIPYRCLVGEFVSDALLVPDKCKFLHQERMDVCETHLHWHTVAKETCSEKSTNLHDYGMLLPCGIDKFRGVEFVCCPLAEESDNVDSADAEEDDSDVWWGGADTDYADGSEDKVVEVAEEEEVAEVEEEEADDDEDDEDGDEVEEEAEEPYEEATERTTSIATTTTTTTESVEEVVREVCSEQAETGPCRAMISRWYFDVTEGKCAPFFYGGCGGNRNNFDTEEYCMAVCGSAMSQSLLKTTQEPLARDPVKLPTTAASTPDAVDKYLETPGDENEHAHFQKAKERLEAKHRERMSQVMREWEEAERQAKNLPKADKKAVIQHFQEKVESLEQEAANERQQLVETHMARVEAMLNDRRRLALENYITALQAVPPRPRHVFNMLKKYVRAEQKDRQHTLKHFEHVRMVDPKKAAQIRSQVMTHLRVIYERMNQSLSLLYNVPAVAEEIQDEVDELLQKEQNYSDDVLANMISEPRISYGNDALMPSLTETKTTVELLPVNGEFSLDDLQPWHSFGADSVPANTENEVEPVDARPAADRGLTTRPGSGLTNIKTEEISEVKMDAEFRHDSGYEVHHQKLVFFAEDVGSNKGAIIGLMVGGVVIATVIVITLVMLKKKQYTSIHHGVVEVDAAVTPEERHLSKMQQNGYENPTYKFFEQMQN
Cholinesterase (Equus caballus), sequence (P81908 whole entry): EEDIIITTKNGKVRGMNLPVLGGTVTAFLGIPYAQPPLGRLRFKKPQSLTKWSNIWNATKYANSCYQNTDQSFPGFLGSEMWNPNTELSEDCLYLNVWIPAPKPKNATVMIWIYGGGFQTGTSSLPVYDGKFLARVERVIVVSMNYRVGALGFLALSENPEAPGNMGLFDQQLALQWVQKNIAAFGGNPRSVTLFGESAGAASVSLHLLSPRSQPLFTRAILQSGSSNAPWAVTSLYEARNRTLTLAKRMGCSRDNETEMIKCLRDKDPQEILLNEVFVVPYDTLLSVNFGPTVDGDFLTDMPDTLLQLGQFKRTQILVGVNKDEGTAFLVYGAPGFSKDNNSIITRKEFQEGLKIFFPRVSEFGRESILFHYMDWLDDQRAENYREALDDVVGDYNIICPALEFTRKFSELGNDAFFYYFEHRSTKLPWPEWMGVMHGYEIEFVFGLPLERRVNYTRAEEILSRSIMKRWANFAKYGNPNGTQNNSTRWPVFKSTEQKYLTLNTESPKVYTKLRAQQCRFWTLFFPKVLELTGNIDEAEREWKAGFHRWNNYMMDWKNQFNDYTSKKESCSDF
Cholinesterase (Equus caballus, UniProt P81908), sequence (P81908 whole entry): as above

COc1cc(/C=C/C(=O)NCC(=O)NCCc2c[nH]c3ccccc23)ccc1O
IC50 [1]: 1.23 µM
IC50 [2]: 0.96 µM

COc1ccc2[nH]cc(CCNC(=O)Nc3cccc(/C(N)=N/O)c3)c2c1
Activity [3]: Active
Activity [4]: Active
inhibition [5]: Active
Activity [6]: Active
Activity [7]: Active
inhibition [8]: Active
inhibition [9]: Active
Activity [10]: Active
IC50 [11]: 1.19 µM
Activity [12]: Active
Activity [13]: Active
Activity [14]: Active
Activity [15]: Active
Activity [16]: Active
IC50 [17]: 0.91 µM
Activity [18]: Non-toxic
Activity [19]: Active
Activity [20]: Active
Activity [21]: Active
Activity [22]: Non-toxic
inhibition [23]: Active
Activity [24]: Active
inhibition [25]: Active
Activity [26]: Active
Activity [27]: Non-toxic
Activity [28]: 47.3%
Activity [29]: Active
Activity [30]: Active
Activity [31]: Active
inhibition [32]: Active
Activity [33]: inactive
Activity [34]: Active
Activity [35]: Non-toxic
Activity [36]: Active
Activity [37]: Non-toxic
Activity [38]: Active
Activity [39]: inactive
Papp at 500 µM [40]: 12.3 ×10⁻⁶ cm/s
Activity [41]: Active
Activity [42]: Active
inhibition [43]: Active
Activity [44]: Active
Activity [45]: Non-toxic
Activity [46]: Non-toxic
IC50 [47]: 15.2 µM
IC50 [48]: 1.01 µM

CCN(C)C(=O)Oc1cccc([C@H](C)N(C)C)c1
Activity [49]: Active
Activity [50]: Active
Activity [51]: Active
Activity [28]: 4.73%
Activity [52]: Active
Activity [53]: Active

N/C(=N\O)c1cccc(NC(=O)Nc2cccc(F)c2)c1
Activity [3]: Active
Activity [4]: Active
inhibition [5]: Active
Activity [6]: Active
Activity [7]: Active
inhibition [8]: Active
inhibition [9]: Active
Activity [10]: Active
IC50 [11]: 6.69 µM
Activity [12]: Active
Activity [13]: Active
Activity [14]: Active
Activity [15]: Active
Activity [16]: Active
IC50 [17]: 1.72 µM
Activity [18]: Non-toxic
Activity [19]: Active
Activity [20]: Active
Activity [21]: Active
Activity [22]: Non-toxic
inhibition [23]: Active
Activity [24]: Active
inhibition [25]: Active
Activity [26]: Active
Activity [27]: Non-toxic
Activity [28]: 46.1%
Activity [29]: Active
Activity [30]: Active
Activity [31]: Active
inhibition [32]: Active
Activity [33]: inactive
Activity [34]: Active
Activity [35]: Non-toxic
Activity [36]: Active
Activity [37]: Non-toxic
Activity [38]: Active
Activity [39]: inactive
Papp at 500 µM [40]: 10.7 ×10⁻⁶ cm/s
Activity [41]: Active
Activity [42]: Active
inhibition [43]: Active
Activity [44]: Active
Activity [45]: Non-toxic
Activity [46]: Non-toxic
IC50 [47]: 16.1 µM
IC50 [48]: 5.21 µM
